Data on 22 compounds can be found in patent publication US20040235798A1, “Compositions and methods for inhibiting prenyltransferases” (priority 2001, published 2004).

The target in experiment [1] is T1, fungal N-myristoyltransferase (Candida albicans, UniProt P30418).
T1 sequence (P30418 1-451): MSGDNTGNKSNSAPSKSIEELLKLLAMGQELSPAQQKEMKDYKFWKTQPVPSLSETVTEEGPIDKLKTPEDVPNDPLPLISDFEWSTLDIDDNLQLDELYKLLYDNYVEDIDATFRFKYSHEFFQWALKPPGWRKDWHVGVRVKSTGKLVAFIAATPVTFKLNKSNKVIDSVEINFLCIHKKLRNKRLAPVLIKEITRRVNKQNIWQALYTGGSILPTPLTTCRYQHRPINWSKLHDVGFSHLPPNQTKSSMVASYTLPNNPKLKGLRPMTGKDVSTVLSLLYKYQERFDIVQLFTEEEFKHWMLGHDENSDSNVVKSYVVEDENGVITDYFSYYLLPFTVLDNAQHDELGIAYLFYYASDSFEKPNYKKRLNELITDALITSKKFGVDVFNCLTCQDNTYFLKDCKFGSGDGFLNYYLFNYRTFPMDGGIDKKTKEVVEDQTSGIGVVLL
The note with it: cited from earlier work.

The next experiment addresses C. albicans GGPTase (Candida albicans, UniProt Q8J224+Q9Y764). The experiment can be described thus: Assay protocol for determining IC50 of fungal GGPTase inhibitors (3H-GGPP, FlashPlate). It is filed as biochemical. The note with it: 2 nM C. albicans GGPTase, 250 nM 3H-GGPP, 250 nM C. albicans Rho; read-out: CaGGTase. The method, then:
(i) Assay Protocol for Determining IC50
Plate test compounds (10 μL per well) at predetermined concentration in 50% DMSO. For background control (blank) and reaction control (negative), add 10 μL of 200 μM GGPP and 10 μL 50% DMSO, respectively. Prepare assay buffer: 50 mM Tris, pH7.5, 20 mM KCL, 5 mM MgCl2, 5 μM ZnCl2, 0.5 mM Zw(3-14), 2 mM DTT and 0.1 mg/mL BSA.
Add 20 μL of C. albicans GGPTase and ^3H-GGPP in assay buffer to test compound. Preincubate enzyme and ^3H-GGPP with test compound for 15 minutes at room temperature. Add 20 μL C. albicans Rho in assay buffer. Incubate for 30 minutes at room temperature. Final assay conditions are 2 nM C. albicans GGPTase, 250 nM ^3H-GGPP and 250 nM C. albicans Rho.
Add 100 μL 15 mM GGPP, 50 mM Tris, pH 7.0 and 2% BSA to quench reaction. Transfer reaction to Nickel chelate FlashPlate. Allow his-tagged C. albcians Rho to capture onto plate. Rinse plate 1× with 200 μL 20 mM Tris, pH 7.0. Read in TOPCOUNT.

Experiment [2] deals with C. albicans. Kind of experiment: In vitro susceptibility testing of compounds in C. albicans (MIC). It is filed as cell-based. The note with it: concentration where no visible growth is observed, 35° C., read at 24 hr and 48 hr; for MIC: Candida albicans, read-out: C. alb MIC. The method, then:
(ii) In vitro Susceptibility Testing of Compounds in C. albicans […] Innoculate strain C. albicans strain such as SC5314 into 20 mL of the appropriate medium and incubate at 35° C. with shaking (220 rpm) overnight 2: Count the C. albicans cells in a 1:10 dilution of the overnight culture using a haemocytometer. 3: Work out the dilution factor required to bring the cell number to 1×10^3 cells/100 μL (equivalent to 1×10^4 cells/mL) then add the required volume of the overnight culture to 25 mL media in a falcon tube. 4: Vortex the diluted cells and immediately pipette 100 μL of the cell suspension to each of the required rows of a 96 well plate using the multipipettor 5: Prepare each of the 100× stock solutions for the compounds to be tested in DMSO in the required concentration range in Eppendorf tubes. 6: The dilution series for each of the compounds may now be prepared in sequence: For each compound—start with highest dilution. Add 10 μL compound in DMSO to the 490 μL of appropriate media. Immediately vortex and add 100 μL to the appropriate row of cells on the 96-well plate. Repeat this process for the next and subsequent concentrations of this compound before starting on the dilution series for additional compounds. 7: When complete cover the 96-well plate with an acetate sheet and incubate at 35° C. Inspect visually and record results for both plates at 24 hr and 48 hr. The MIC corresponds to the concentration of compound where no visible growth is observed.

Experiment [3] concerns C. albicans. The experiment can be described thus: Determination of minimum fungicidal concentrations (MFC). Conditions: concentration where no cellular growth is observed on the plate after plating out MIC wells; for MFC: Candida albicans, read-out: C. alb MFC. In kind it is cell-based. The procedure: (iii) Determination of Minimum Fungicidal Concentrations (MFC) After the required time course for the MIC determination, the minimum fungicidal concentration can then be determined by plating out the entire contents of the well of the microtitre plates onto YPD or Sabourand plates. These plates are then incubated at 35° C. for 24-48 hrs. The MFC corresponds to the concentration of compound where no cellular growth is observed on the plate.

A further experiment concerns the target CAK1 (Candida albicans, UniProt A0A1D8PH53). The experiment can be described thus: CAK1 inhibition, time-resolved fluorescence (FRET) kinase assay with biotin-his-cdk2 substrate. It is filed as biochemical. The note with it: 10 nM his-CAK1, 20 μM ATP, 30 min room temperature. The procedure: The following protocol was used for measuring CAK1 inhibition by test compounds:
A compound plate was pre-made with 20 μg/ml compound dissolved in 100% DMSO in each well of a 384-well plate (polypropylene, Coming cat # 29445-136), except for two control columns, wherein each well contained 100% DMSO.
A substrate plate was prepared by adding a pre-determined volume of substrate solution (925 nM biotin-his-cdk2 in reaction buffer) into each well of a 96-well deep-well plate (Beckman cat. 267006). To the control wells of the plate, 1/20 vol. of positive control and blank solutions were added according to the plate map. Positive control solutions are Olomoucine (MTX-277859) at 0.25, 0.75, 2.25, 6.75 mM, respectively, in DMSO, and blank solution is 50 mM EDTA in reaction buffer (50 mM Tris-HCl (pH 7.5), 50 mM NaCl, 0.1 mg/mL BSA, 100 μM MgCl2).
The reaction plate (384-well polystyrene black, Packard Opti plate, Cat.# 6005256) was loaded with a volume of 2.0 μL of samples from the compound plate and 8.0 μL of substrate solution from the substrate plate. 10 μl of enzyme solution (10 nM his-CAK1, 20 μM ATP in reaction buffer) was added to start the reaction. The plate was covered with a lid and incubated at room temperature for 30 min.
10 μl of FRET solution (45 nM streptavidin-APC*, 30 nM Europium-Ab, 3 mM EDTA in reaction buffer) was added to each of the wells of the reaction plate to stop the reaction. The time-resolved fluorescence was measured on a Wallac Victor fluorometer (excitation 340 nm, emission 665 nm, delay time 100 μs, window time 100 μs).

pIC50: −log10 of the molar value.

Chain of C. albicans GGPTase (Q9Y764 entry or part of it): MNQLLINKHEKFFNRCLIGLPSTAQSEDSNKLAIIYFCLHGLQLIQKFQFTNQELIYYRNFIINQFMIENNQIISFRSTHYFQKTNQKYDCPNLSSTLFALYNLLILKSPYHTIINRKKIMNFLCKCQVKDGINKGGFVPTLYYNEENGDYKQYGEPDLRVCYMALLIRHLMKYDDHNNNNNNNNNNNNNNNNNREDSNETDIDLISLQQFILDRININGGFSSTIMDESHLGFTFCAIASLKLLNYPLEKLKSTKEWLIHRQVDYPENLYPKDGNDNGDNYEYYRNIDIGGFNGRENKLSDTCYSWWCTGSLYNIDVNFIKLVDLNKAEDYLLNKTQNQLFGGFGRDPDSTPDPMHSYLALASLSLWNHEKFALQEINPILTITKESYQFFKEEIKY
Chain of C. albicans GGPTase (Q8J224 entry or part of it): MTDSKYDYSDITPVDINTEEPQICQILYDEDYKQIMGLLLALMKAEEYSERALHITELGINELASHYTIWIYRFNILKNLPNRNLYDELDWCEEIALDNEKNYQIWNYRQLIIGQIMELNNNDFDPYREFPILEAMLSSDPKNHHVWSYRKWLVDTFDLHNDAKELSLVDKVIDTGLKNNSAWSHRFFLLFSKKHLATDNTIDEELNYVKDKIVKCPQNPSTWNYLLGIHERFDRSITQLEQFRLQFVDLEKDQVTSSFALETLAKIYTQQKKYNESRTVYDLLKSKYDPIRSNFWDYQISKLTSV
Chain of CAK1 (A0A1D8PH53 entry or part of it): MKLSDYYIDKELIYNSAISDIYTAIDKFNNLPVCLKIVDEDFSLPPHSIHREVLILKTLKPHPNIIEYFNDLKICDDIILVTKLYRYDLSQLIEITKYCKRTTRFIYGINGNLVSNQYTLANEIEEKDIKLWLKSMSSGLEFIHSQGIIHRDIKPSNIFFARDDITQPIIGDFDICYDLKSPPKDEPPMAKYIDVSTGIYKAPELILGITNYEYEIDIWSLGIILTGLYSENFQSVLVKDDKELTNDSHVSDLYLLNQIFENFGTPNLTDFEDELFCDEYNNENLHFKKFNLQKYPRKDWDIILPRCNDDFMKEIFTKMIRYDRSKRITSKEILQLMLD

For `CN(C)C(=O)c1ccc2nc(NC(=O)[C@H]3CC[C@@H](CN)CC3)sc2c1`, in experiment [1], the “inhibitor of fungal N-myristoyltransferase” value was “potent inhibitor”.

The MIC is the least concentration at which growth counts as inhibited. Usually MFC stands for the lowest tested concentration that kills the fungus rather than only halting it. Regarding `Cn1cncc1CN1CCN(C(=O)N(Cc2cccc(Cl)c2)Cc2cccc(Cl)c2)CC1C(=O)NC[C@H]1CO[C@](Cn2ccnc2)(c2ccc(Cl)cc2Cl)O1` (stereo partly shown) [Compound 1], on C. albicans GGPTase, the pIC50 was above 7.00. Moreover, the minimal inhibitory concentration (MIC) in the experiment on C. albicans [2] is below 10 µg/mL. In addition, the MFC with C. albicans [3] is below 10 µg/mL.

Consider `C[C@H](NC(=O)C1CN(C(=O)N(Cc2cccc(Cl)c2)Cc2cccc(Cl)c2)CCN1Cc1cncn1C)[C@](O)(Cn1cncn1)c1ccc(F)cc1F` (stereo partly shown) [Compound 2], for which the pIC50 on C. albicans GGPTase is above 7.00. Further, the minimal inhibitory concentration (MIC) with C. albicans [2] was below 10 µg/mL. For the same compound, the minimum fungicidal concentration (MFC) in the experiment on C. albicans [3] is below 10 µg/mL.

Take `Cn1cncc1CN(CC(=O)NC[C@@H]1CO[C@@](Cn2ccnc2)(c2ccc(Cl)cc2Cl)O1)C1CCN(C(=O)N(Cc2cccc(Cl)c2)Cc2cccc(Cl)c2)CC1` [Compound 4]: the pIC50 at C. albicans GGPTase was above 7.00. The minimal inhibitory concentration (MIC) in the experiment on C. albicans [2] is below 10 µg/mL. Further, the MFC in the experiment on C. albicans [3] is below 10 µg/mL.

Take `Cn1cncc1CN(C[C@@H]1CO[C@@](Cn2ccnc2)(c2ccc(Cl)cc2Cl)O1)C1CCN(C(=O)N(Cc2cccc(Cl)c2)Cc2cccc(Cl)c2)CC1` [Compound 5]: the pIC50 at C. albicans GGPTase was above 7.00. Also, the MIC with C. albicans [2] is below 10 µg/mL. The MFC with C. albicans [3] is below 10 µg/mL.

In the case of `Cn1cncc1CN1CCN(C(=O)N(Cc2cccc(Cl)c2)Cc2cccc(Cl)c2)C[C@@H]1CNC1CO[C@@](Cn2cncn2)(c2ccc(Cl)cc2Cl)O1` (stereo partly shown) [Compound 8], the pIC50 at C. albicans GGPTase is above 7.00. The MIC with C. albicans [2] was below 10 µg/mL. Further, in the experiment on C. albicans [3], the MFC was below 10 µg/mL.

Take `Cn1cncc1CN1CCN(C(=O)N(Cc2cccc(Cl)c2)Cc2cccc(Cl)c2)C[C@@H]1CNC1CO[C@@](Cn2cncn2)(c2ccc(Cl)cc2Cl)O1` (stereo partly shown) [Compound 9]: in the experiment on C. albicans [2], the “C. alb MIC” value is below 10 µg/mL. For the same compound, the “C. alb MFC” value with C. albicans [3] was below 10 µg/mL.

With `Cn1cncc1CN1CCN(C(=O)N(Cc2cccc(Cl)c2)Cc2cccc(Cl)c2)C[C@@H]1C(=O)NC[C@@H]1CO[C@@](Cn2cncn2)(c2ccc(Cl)cc2Cl)O1` [Compound 10], the pIC50 on C. albicans GGPTase is above 7.00. Besides, the minimal inhibitory concentration (MIC) in the experiment with C. albicans [2] is below 10 µg/mL. The minimum fungicidal concentration (MFC) with C. albicans [3] is below 10 µg/mL.

As to `Cn1cncc1CN1CCN(C(=O)N(Cc2cccc(Cl)c2)Cc2cccc(Cl)c2)C[C@@H]1C(=O)NC[C@H]1CO[C@](Cn2ccnc2)(c2ccc(Cl)cc2Cl)O1` [Compound 11], on C. albicans GGPTase, the pIC50 was above 7.00. Besides, the minimum inhibitory concentration (MIC) in the experiment on C. albicans [2] was below 10 µg/mL. Further, in the experiment on C. albicans [3], the MFC is below 10 µg/mL.

`Cn1cncc1CN1CCN(C(=O)N(Cc2cccc(Cl)c2)Cc2cccc(Cl)c2)C[C@@H]1C(=O)NC[C@H]1CO[C@](Cn2ccnc2)(c2ccc(Cl)cc2Cl)O1` [Compound 12]: the “C. alb MIC” value with C. albicans [2] is below 10 µg/mL. Moreover, the “C. alb MFC” value with C. albicans [3] is below 10 µg/mL.

Turning to `Cn1cncc1CN1CCN(C(=O)N(Cc2cccc(Cl)c2)Cc2cccc(Cl)c2)C[C@@H]1C(=O)NC[C@@H]1CO[C@@](Cn2ccnc2)(c2ccc(Cl)cc2Cl)O1` [Compound 13], the pIC50 on C. albicans GGPTase was above 7.00. The MIC with C. albicans [2] was below 10 µg/mL. For the same compound, in the experiment with C. albicans [3], the minimum fungicidal concentration (MFC) is below 10 µg/mL.

On to `Cn1cncc1CN1CCN(C(=O)N(Cc2cccc(Cl)c2)Cc2cccc(Cl)c2)C[C@H]1C(=O)NC[C@@H]1CO[C@@](Cn2ccnc2)(c2ccc(Cl)cc2Cl)O1` [Compound 14], for which, on C. albicans GGPTase, the pIC50 was above 7.00. The minimum inhibitory concentration (MIC) in the experiment with C. albicans [2] was below 10 µg/mL. For the same compound, the MFC in the experiment with C. albicans [3] was below 10 µg/mL.

`C[C@@H](c1nc([C@H]2CN(C(=O)N(Cc3cccc(Cl)c3)Cc3cccc(Cl)c3)CCN2Cc2cncn2C)cs1)[C@@](O)(c1ccc(F)cc1F)n1cncn1` [Compound 15]: the pIC50 at C. albicans GGPTase was above 7.00. In addition, the MIC in the experiment on C. albicans [2] was below 10 µg/mL. The MFC in the experiment on C. albicans [3] was below 10 µg/mL.

For the compound `C[C@@H](c1nc(CN(Cc2cncn2C)[C@H]2CCN(C(=O)N(Cc3cccc(Cl)c3)Cc3cccc(Cl)c3)C2)cs1)[C@@](O)(c1ccc(F)cc1F)n1cncn1` [Compound 16], the pIC50 at C. albicans GGPTase was above 7.00. For the same compound, the MIC with C. albicans [2] is below 10 µg/mL. Moreover, the MFC in the experiment with C. albicans [3] was below 10 µg/mL.

`Cc1onc(-c2c(Cl)cccc2Cl)c1C(=O)Nc1cccc(-c2ncon2)c1` [Compound 101] had a pIC50 on CAK1 above 4.30.

On CAK1, `O=C(CSc1ccccn1)c1ccc(OCc2ccc([N+](=O)O)cc2)cc1` [Compound 102] had a pIC50 above 5.00.

As for `CCOC(=O)c1c(NC(=O)c2c(OC)cccc2OC)sc(C)c1C` [Compound 103], the pIC50 against CAK1 was above 4.30.

`CCOC(=O)c1c(NC(=O)c2c(OC)cccc2OC)sc2c1CCC(C)C2` (stereo not shown) [Compound 104]: the pIC50 at CAK1 is below 4.30.

On CAK1, `O=C1CCc2cc(C(=O)CSc3ccc(Cl)cc3Cl)ccc2N1` [Compound 105] showed a pIC50 above 4.30.

As to `CCOC(=O)C1=C(C)N(Cc2ccccc2)C(=O)NC1c1ccc(OC(F)(F)F)cc1` (stereo not shown) [Compound 106], the pIC50 on CAK1 is above 4.30.

For `O=C(c1ccccc1OCC1COC(Cn2ccnc2)(c2ccc(Cl)cc2Cl)O1)N(Cc1ccccc1)Cc1ccccc1` (stereo not shown) [Compound 107], the pIC50 against CAK1 was above 5.00.

As to `O=C(c1cc(C(O)(Cn2ccnc2)c2ccccc2)ccc1-c1ccccc1)N(Cc1ccccc1)Cc1ccccc1` (stereo not shown) [Compound 108], the pIC50 on CAK1 is above 4.30.
